Assay: Pharmacokinetics of GHB in plasma after oral gavage of GHB delivering compounds, with relative oral bioavailability vs sodium oxybate
Conditions: vehicle water; for % AUC0-4 hr, relative oral bioavailability vs study comparator (sodium oxybate) / % Cmax, relative oral bioavailability vs study comparator (sodium oxybate): mean conjugate/mean comparator
[1] = dose molar equivalent of 100 mg/kg NaGHB
[2] = dose equivalent to 80 mg/kg NaGHB

SMILES	% AUC0-4 hr, relative oral bioavailability vs study comparator (sodium oxybate) [1]	% Cmax, relative oral bioavailability vs study comparator (sodium oxybate) [1]	Tmax of GHB in plasma (oral gavage, dose molar equivalent of 100 mg/kg NaGHB)	% AUC0-4 hr, relative oral bioavailability vs study comparator (sodium oxybate) [2]	% Cmax, relative oral bioavailability vs study comparator (sodium oxybate) [2]
O=C1CCCO1 [GBL]	27%	70%	15 min		
CCOC(=O)OCCCC(=O)O [O-(ethoxycarbonyl)-GHB, O-(Ethoxycarbonyl)-GHB]				54%	51%
